The numbers were not newly measured in US20100130528A1, “ADAMANTANE MODULATORS OF NMDA RECEPTOR AND/OR 5HT3 RECEPTOR” (AUSPEX PHARMACEUTICALS, INC., priority 2008, published 2010), which cites them from elsewhere.

For data set [1] the following is noted: in man.
Data set [2] has as its system cytochrome P450.
For data set [3] the following is noted: in vivo.

As to `CC12CC3CC(C)(C1)CC(N)(C3)C2` [memantine, 1-amino-3,5-dimethyl-adamantane], in data set [1], the “circulating memantine-related material present as the parent compound” value is on record as “about 80%”. Further, the “cytochrome P450 catalysed metabolism” value in data set [2] is reported as “No cytochrome P450 catalysed metabolism has been detected”. The adverse effects result in data set [3] was “fatigue, pain, hypertension, dizziness, headache, constipation, vomiting, confusion, somnolence, hallucination, cough, and dyspnea”.
